In patent US20240174690A1, “ANNULATED 2-AMINO-3-CYANO THIOPHENES AND DERIVATIVES FOR THE TREATMENT OF CANCER” (BOEHRINGER INGELHEIM INTERNATIONAL GMBH, priority 2021, published 2024):
pIC50: −log10 of the molar value. In brackets after ≈: the same amount, converted by molar mass. Read-outs that look alike come from different tables or passages of the source.

Assays:
[1] = test system: KRAS G12C-dependent Ba/F3 cells; experiment: Ba/F3 proliferation assay, KRAS G12C; type: cell-based; settings: Mus musculus, BaF3, 72 h, AlamarBlue
Method in brief: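 Viability is measured as AlamarBlue fluorescence in Ba/F3 cells that depend on a transduced mutant KRAS isoform for growth without IL-3. Each treatment is run in technical duplicate, and dose-response curves are fitted.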

NCI-H358 cells = experiment: NCI-H358 CTG proliferation assay (120 h) (NSCLC, G12C); type: cell-based, human; settings: Homo sapiens
Method in brief: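 NCI-H358 cells (KRAS G12C) were seeded at 2000/well (assay 1) or 200/well (assay 2) in RPMI-1640 + 10% FCS and dosed with a logarithmic series, DMSO-normalized. After 120 h, viability was read by CellTiter-Glo luminescence as percent of DMSO control, with a T0 read at dosing. IC50 came from a four-parameter fit.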

[2] = Solubility measurement (DMSO solution method), McIlvaine buffer pH 4.5 or 6.8; type: physicochemical; settings: aqueous buffer, kinetic from dmso stock, DMSO stock diluted to 250 μM, 24 h shaking at ambient temperature
Method in brief: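 DMSO stock diluted into McIlvaine buffer, pH 4.5 or 6.8, to 250 µM final, shaken 24 h at ambient temperature. Precipitate removed by filtration; filtrate quantified by LC-UV against a fully dissolved reference in acetonitrile/water 1:1.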

[3] = Caco-2 assay (permeability PappAB, PappBA, efflux ratio); type: in vitro ADME; settings: human, Caco-2, 10 μM test compound, pH 7.4; for efflux ratio at 90 min, 10 μM: efflux ratio PappBA/PappAB, read-out: Caco ER; for Papp A→B at 90 min, 10 μM: apical to basolateral
Method in brief: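 Confluent Caco-2 monolayers on filter supports, 0.25% BSA in both donor and receiver buffer; transport measured a-b and b-a. After 25-30 min preincubation at 37 °C, samples at 0, 30, 60, 90 min quantified by HPLC/MS/MS. Papp from receiver amount per time, filter area and initial donor concentration; efflux ratio = PappBA/PappAB.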

[4] = assay 2, CTG, read-out: H358 (assay 2) IC50
[5] = McIlvaine buffer pH 4.5, read-out: solubility pH 4.5
[6] = McIlvaine buffer pH 6.8, read-out: solubility pH 6.8
[7] = assay 1, CTG, read-out: H358 (assay 1) IC50

SMILES	pIC50 [1]	pIC50 (NCI-H358 cells; [4])	solubility at 24 h [2, 5] [µg/mL]	solubility at 24 h [2, 6] [µg/mL]	efflux ratio at 90 min, 10 μM [3]	Papp A→B at 90 min, 10 μM [3] [×10⁻⁶ cm/s]	pIC50 (NCI-H358 cells; [7])
C[C@H](Oc1cc(-n2ccc(-c3cn(CC4(C)COC4)nn3)n2)nc(-c2noc3c2CCC[C@@]32CCCc3sc(N)c(C#N)c32)n1)[C@@H]1CCCN1C [II-213]	7.96	9.00	23 (≈ 32.5 µM)	2 (≈ 2.83 µM)	2.6		
C[C@H](Oc1nc(-c2noc3c2CCC[C@@]32CCCc3sc(N)c(C#N)c32)nc(N2CCNC3(CC3)C2)c1F)[C@@H]1C[C@@H](F)CN1C [II-155]	6.77	7.11	> 153	3 (≈ 4.71 µM)	2.9		
C[C@H](Oc1cc(C2=CCNCC2)nc(-c2noc3c2CCC[C@@]32CCCc3sc(N)c(C#N)c32)n1)[C@@H]1CCCN1C [II-164]	6.62	7.40	> 164	> 137	138	0.1	
C[C@H](Oc1cc(N2CCNC3(CC3)C2)nc(-c2noc3c2CCC[C@@]32CCCc3sc(N)c(C#N)c32)n1)[C@@H]1C[C@@H](F)CN1C [II-165]	6.96	6.78	> 142	49 (≈ 79.2 µM)	2.5		
COCCNC(=O)c1ccn(-c2cc(O[C@@H](C)[C@@H]3CCCN3C)nc(-c3noc4c3CCC[C@@]43CCCc4sc(N)c(C#N)c43)n2)n1 [II-195]	8.70	8.40	131 (≈ 199 µM)	71 (≈ 108 µM)	4.5	6.2	
C[C@H](Oc1cc(-n2cnc(C(=O)N(C)C)c2)nc(-c2noc3c2CCC[C@@]32CCCc3sc(N)c(C#N)c32)n1)[C@@H]1CCCN1C [II-126]	7.49	5.77	123 (≈ 196 µM)	104 (≈ 166 µM)	11	2	
C[C@H](Oc1cc(-n2cc3ccn([C@H]4CCOC4)c(=O)c3n2)nc(-c2noc3c2CCC[C@@]32CCCc3sc(N)c(C#N)c32)n1)[C@@H]1CCCN1C [II-202]	7.74	8.30	> 166	58 (≈ 83.6 µM)	3.6	4.4	
CO[C@@H]1C[C@@H]([C@H](C)Oc2cc(N3CCNC4(CC4)C3)nc(-c3noc4c3CCC[C@@]43CCCc4sc(N)c(C#N)c43)n2)N(C)C1 [II-187]	6.88	6.87	> 140	119 (≈ 189 µM)	4.6	5.4	
C[C@H](Oc1cc(-n2ccc(-c3cnccn3)n2)nc(-c2noc3c2CCC[C@@]32CCCc3sc(N)c(C#N)c32)n1)[C@@H]1CCCN1C [II-130]	8.22	7.55	< 1	< 1	1.4		7.60
C[C@H](Oc1cc(N2CCNC[C@]23CCOC3)nc(-c2onc3c2CCC[C@@]32CCCc3sc(N)c(C#N)c32)n1)[C@@H]1CCCN1C [I-12]	6.65	5.51	> 152	125 (≈ 198 µM)	70.2	0.5	
CO[C@H]1CCN(C)[C@@H]1[C@H](C)Oc1cc(-n2ccc(C(N)=O)n2)nc(-c2noc3c2CCC[C@@]32CCCc3sc(N)c(C#N)c32)n1 [II-201]	8.52	8.22	> 128	6 (≈ 9.53 µM)	1.8	18	
C[C@H](Oc1cc(-n2cc3c(n2)CN(C)C3)nc(-c2noc3c2CCC[C@@]32CCCc3sc(N)c(C#N)c32)n1)[C@@H]1CCCN1C [II-174]	6.99	6.95	> 149	115 (≈ 188 µM)	5.8		
C[C@H](Oc1cc(N2CCNC[C@@]23CCOC3)nc(-c2onc3c2CCC[C@@]32CCCc3sc(N)c(C#N)c32)n1)[C@@H]1CCCN1C [I-13]	5.81	5.37	> 148	> 150	49.8	0.4	
C[C@H](Oc1cc(N2CCOC2=O)nc(-c2noc3c2CCC[C@@]32CCCc3sc(N)c(C#N)c32)n1)[C@@H]1CCCN1C [II-143]	8.30		> 123	91 (≈ 158 µM)	7.3	4.5	7.60
CO[C@@H]1C[C@@H]([C@H](C)Oc2cc(N3CCN(C)C4(COC4)C3)nc(-c3noc4c3CCC[C@@]43CCCc4sc(N)c(C#N)c43)n2)N(C)C1 [II-153]	5.81	5.55	> 135	103 (≈ 156 µM)	30	1.2	
C[C@H](Oc1cc(-n2cc(C(=O)N(C)C)nn2)nc(-c2noc3c2CCC[C@@]32CCCc3sc(N)c(C#N)c32)n1)[C@@H]1CCCN1C [II-132]	8.00	6.49	117 (≈ 186 µM)	100 (≈ 159 µM)	4.9	6.8	
C[C@H](NC(=O)c1ccn(-c2cc(O[C@@H](C)[C@@H]3CCCN3C)nc(-c3noc4c3CCC[C@@]43CCCc4sc(N)c(C#N)c43)n2)n1)c1ccccn1 [II-191]	8.52	8.52	73 (≈ 104 µM)	12 (≈ 17 µM)	2.5		
C[C@H](Oc1cc(-n2ccc(C(=O)N(C)C3COC3)n2)nc(-c2noc3c2CCC[C@@]32CCCc3sc(N)c(C#N)c32)n1)[C@@H]1CCCN1C [II-194]	8.40	8.52	116 (≈ 173 µM)	31 (≈ 46.3 µM)	2.6	11	
